In patent US20240352466A1, “APTAMER-siRNA FUSIONS” (APTERNA LIMITED, priority 2020, published 2024):
In the oligonucleotide strings, read from the 5' end, every base follows the letter of its sugar. An asterisk marks phosphorothioate; unmarked linkages are phosphodiester. Other units and linkages are bracketed, terminal groups are in braces. A string of capitals states the bases alone. m = 2'-O-methyl; f = 2'-fluoro

Assays:
[1] = system: CEBPB mRNA; test: CEBPB mRNA transcripts (qPCR) in BNL-ME mouse cells transfected with naked and ESC siRNAs; format: cell-based; settings: 1, 5 and 10 nM + L3K, lysed after 48 hrs, vs untreated cells
Protocol: The activity of naked and ESC siRNAs was investigated in mouse BNL hepatocyte cells.
BNL-ME mouse cells were seeded at a density of approximately 20,000 cells per well. The following siRNAs were tested: (m) siCEBPB (Ambion) (SEQ ID NOs: 11, 51 and 12, 52), (m) siCEBPB (Ambs63860) (ESC) (SEQ ID NOs: 17, 18), (h/m) siCEBPB (SEQ ID NOs: 7 and 8), (h/m) siCEBPB ESC (SEQ ID NOs: 15 and 16), (h) siCEBPB (AP6143-6145) (SEQ ID NOs: 9 and 10), (r) siCEBPB (Hao) (SEQ ID NOs: 13 and 14). Test siRNAs were transfected at concentrations of 1, 5 and 10 nM in the presence of Lipofectamine™ 3000 (L3K). Control treatments (untreated, mock L3K treatment, and siFLUC at 1, 5 and 10 nM) were also performed. The media was changed 24 hours following transfection, and cells lysed after 48 hrs. CEBPB mRNA transcript were quantified through qPCR.

[2] = system: pancreatic cancer with liver metastasis; test: Combination of TfR-siCEBPb with PD-1 inhibitor pembrolizumab in mouse model of pancreatic cancer with liver metastasis; format: in vivo
From the text: The combinatorial anti-tumour effects of TfR-siCEBPb and PD-1 inhibitor pembrolizumab were investigated in the mouse model of pancreatic cancer with liver metastasis. The TfR-siCEBPb (ESC) and TfR-siFLUC sequences from Example 5 were used in this study.
The treatment groups were as follows:
Fourteen days prior to the first dose, mice underwent tumour challenge. The day prior to, and 21 days following the first dose, mice underwent bioluminescence tumour imaging (BTL).

[3] = system: CEBPB mRNA; test: CEBPB mRNA expression in primary mouse hepatocytes exposed to TfR-SS-(h/m) siCEBPb; format: cell-based
From the text: The human siCEBPbeta sequence was aligned with chromosome 3 of the mouse genome (Accession NC_0344592.1), in which the CEBPbeta gene is located, using Basic Local Alignment Search Tool (BLAST, https://blast.ncbi.nlm.nih.gov). […] To make a human/mouse cross-reactive siRNA, this sequence was substituted in the sense (G to A) and antisense (C to U) strands. The sense and antisense strands of this human/mouse crossreactive (h/m) siCEBPb correspond to SEQ ID NOs: 15 and 16 respectively. TfR-SS-MALATI siRNA was included as an siRNA effector control.
Primary mouse hepatocytes were exposed to TfR-SS-MALATI (100 nM, 500 nM and 1000 nM) or TfR-SS-(h/m) siCEBPb (100 nM, 500 nM and 1000 nM), or were untreated, and the effects on CEBPB mRNA expression determined as outlined previously.

[4] = system: p21; test: qRT-PCR of p21 gene expression in PANC-1, Sup-B15 and CCFR-CEM cell lines; format: cell-based, human; settings: PANC-1, Sup-B15 and CCFR-CEM cells; 400 nM and 800 nM; normalized to GAPDH
Protocol: (§1) In order to evaluate the effects of TfR aptamer-small RNAs, experiments were performed in PANC-1, Sup-B15 and CCFR-CEM cell lines.
(§2) The TfR-SS-siCEBPB construct as described in Example 1 was selected for these experiments. A TfR aptamer (SEQ ID NO:1) fused via a disulphide bridge (SS) to siRNA for MALATI (TfR-MALATI siR) was generated as a negative control for siCEBPB activity. The siCEBPB (SEQ ID NO:9) without a TfR aptamer delivery system was also included for comparative purposes.
(§3) Cells were seeded in plates on Day 0, and the first transfection of TfR aptamer-small RNAs was performed on day 1. The second transfection of TfR aptamer-small RNAs was performed on day 2. Sampling was performed on day 3. Total RNA extraction was performed on samples prior to qRT-PCR quantification of GAPDH, CEBPA, CEBPB, and p21 gene expression. Expression was normalized to GAPDH.
(§4) Transfections were performed at 400 nM and 800 nM concentrations.

[5] = system: CEBPA; test: qRT-PCR of CEBPA gene expression in PANC-1, Sup-B15 and CCFR-CEM cell lines; format: cell-based, human; settings: PANC-1, Sup-B15 and CCFR-CEM cells; 400 nM and 800 nM; normalized to GAPDH
Protocol: as §1, §2, §3, §4

[6] = system: CEBPB; test: qRT-PCR of CEBPB gene expression in PANC-1, Sup-B15 and CCFR-CEM cell lines; format: cell-based, human; settings: PANC-1, Sup-B15 and CCFR-CEM cells; 400 nM and 800 nM; normalized to GAPDH
Protocol: as §1, §2, §3, §4

[7] = system: PANC-Luc cells; test: TfR-siCEBPb in mouse model of pancreatic cancer with liver metastasis; format: in vivo; settings: NOD/SCID mice, 15 mg/kg subcutaneous; for increase in photon count (BTL) relative to PBS and TfR-Fluc controls: after 3 weeks
Protocol: The anti-tumour effects of TfR-siCEBPb was investigated in a mouse model of pancreatic cancer with liver metastasis
Treatment group 1 was administered PBS as a negative control. Treatment group 2 was a TfR-siFLUC construct (SEQ ID NO:32, conjugated to SEQ ID NO:1), as described previously. Treatment groups 3 and 4 was administered ESC modified siCEBPb sequences from Example 4 linked to TfR aptamer SEQ ID NO: 40, an ESC-modified version of the TfR aptamer laid out in SEQ ID NO:1, via a disulphide bridge as described previously. Group 3 is treated with a ribonucleic acid comprising the human-mouse cross reactive siCEBPb described previously, whilst Group 4 is treated with a ribonucleic acid comprising a mouse siCEBPb. These ribonucleic acids correspond to TFR-SS-siCEBPb seq 1 (SEQ ID NO: 41+50) and TfR-SS-siCEBPb seq 2 (SEQ ID NO:34 and 47) respectively.
Each group consisted of five 6-week-old NOD/SCID mice. Three additional mice were included for baseline.
Fourteen days prior to the first dose, mice underwent tumour challenge by performing intrahepatic tumor implantation by injecting […] of a monocellular suspension (in PBS) containing 1×10^6 PANC-Luc cells into a region in the middle lobe of the livers of 6-week-old female NOD/SCID. The day prior to the first dose, mice underwent bioluminescence tumour imaging (BTL) and were weighed to set the week 0 baseline.
Doses were administered as a 100 μL injection on injection days as outlined in Table 2.
At day 21 (week 3), BTL and body weight were recorded, and blood samples were taken, along with pathological sections of pancreas, tumour and liver for study and cryopreservation. The schema of the experiments is shown as FIG. 6.

[8] = system: CEBPA mRNA; test: CEBPA mRNA levels in Panc1 cells after TfR aptamer-saCEBPA constructs, active (L2K) and passive delivery; format: cell-based, human; settings: for CEBPA mRNA levels: passive delivery
From the text: In order to test whether cleavable […] bridge (SS) linkers improved TfR aptamer delivery of small RNA, a series of constructs were made by fusing the 22nt TfR binding aptamer (SEQ ID NO:1) to: i. a CEBPalpha small activating RNA (saCEBPa, SEQ ID NO:24) ii. CEBPbeta small interfering RNA (siCEBPb, SEQ ID NO:9), or iii. siTTR (SEQ ID NO:28).
For the saCEBPa and […] constructs, variants were produced where the aptamer and small RNAs were linked through a disulphide linker (SS).
In order to compare the effects of the SS linker on active and passive delivery, constructs were applied to cells in the presence and absence of transfection agent Lipofectamine™ 2000 (L2K, ThermoFisher Scientific).
The effects of the constructs on CEBPA and B mRNA were measured in Panc1 (human pancreatic cancer cell line) cells. Cells were seeded at a density of approximately 50,000 per well in a 24 well plate, in antibiotic free media with no trypsin (Accutase®). Constructs were applied to cells at 10, 500 or 1000 nM concentration, and mRNA levels measured after incubation for 72 hrs.

(h/m) siCEBPB: human/mouse cross reactive naked CEBPB siRNA (AP6143), SEQ ID NOs: 7 and 8 (chain 1 CUGAGUAAUCACUUAAAGAUU; chain 2 UCUUUAAGUGAUUACUCAGUU; unmodified RNA)
CEBPB mRNA expression [1]: below half that of the untreated cells

pembrolizumab: PD-1 inhibitor pembrolizumab [reference compound]
tumour volume compared to PBS-treated controls ([2]; week 3, pembrolizumab 0.25 mg/kg, TfR constructs 10 mg/kg): smaller tumour volumes

TfR-SS-(h/m) siCEBPb: TfR aptamer linked via SS to human/mouse crossreactive siCEBPb (SEQ ID NOs: 15 and 16) (chain 1 fCmUfGmAfGmUfAfAfUmCfAmCfUmUfAmAfAmGfA*mU*mU; chain 2 mU*fCmU*fUmUfAmAfGmUfGmAmUmUfAmCfUmCfAmG*mU*mU; TfR aptamer attached via disulphide linker, attachment site not given here)
relative CEBPB mRNA expression ([3]; 100 nM): reduced slightly | relative CEBPB mRNA expression ([3]; 500 nM): strongest effect | relative CEBPB mRNA expression ([3]; 1000 nM): more pronounced

siCEBPbeta: human CEBPB siRNA (SEQ ID NOs: 9 and 10) without a TfR aptamer delivery system (chain 1 CUGAGUAAUCGCUUAAAGAUU; chain 2 UCUUUAAGCGAUUACUCAGUU; listed as RNA, chemistry not given here)
p21 gene expression [4]: no statistically significant change | C/EBPA gene expression [5]: no statistically significant change | CEBPbeta gene expression [6]: no statistically significant change

TfR-SS-(m) siCEBPb ESC seq 1: ESC modified mouse siCEBPb linked to TfR aptamer SEQ ID NO:40 via a disulphide bridge (SEQ ID NO: 41+50) (chain 1 UUUAUUCACAUUUUUGAAUUGA; chain 2 GCACCCUGCGGAACUUGUUUU; ESC modified; disulphide linker; modified_base 1 OTHER; 2-Prime-fluoro uracil; modified_base 2 OTHER; modified_base 3 OTHER; modified_base 5 OTHER; modified_base 6 OTHER; modified_base 7 OTHER; 2-Prime-fluoro cytosine; modified_base 9 OTHER; modified_base 11 OTHER; modified_base 12 OTHER; 2-P; 2-Prime-fluoro guanine; 2-Prime-O-methyl cytosine; 2-Prime-fluoro adenine; modified_base 4 OTHER; mo)
increase in photon count (BTL) relative to PBS and TfR-Fluc controls [7]: lower | tumour burden relative to controls ([7]; week 3): ability to reduce tumour burden | tumour volume ([7]; week 3): Slightly lower | tumour weight ([7]; week 3): Slightly lower

TfR-SS-(h/m) siCEBPb ESC seq 2: ESC modified human-mouse cross reactive siCEBPb linked to TfR aptamer SEQ ID NO:40 via a disulphide bridge (SEQ ID NO: 34 and 47) (chain 1 UUUAUUCACAUUUUUGAAUUGA; chain 2 CUGAGUAAUCGCUUAAAGAUU; chain 1: 2'-fluoro at CU, RNA at AG, backbone not given here; chain 2: chemistry not given here; further chemistry not fully specified)
effect on animal weight ([2]; in combination with pembrolizumab): no effect on animal weight | body weight at 3 weeks relative to week 0 [7]: body weight gain | increase in photon count (BTL) relative to PBS and TfR-Fluc controls [7]: lower | effects on IVIS, body weight, tumour volume and weight, seq 2 compared with seq-1 ([7]; week 3): more pronounced | tumour burden relative to controls ([7]; week 3): ability to reduce tumour burden | tumour volume ([7]; week 3): statistically significant lower | tumour weight ([7]; week 3): statistically significant lower

B1: TfR-SS-saCEBPA: TfR aptamer SEQ ID NO:1 linked through a disulphide linker (SS) to saCEBPa (SEQ ID NO:38+49, 39) (nucleic acid)
chain 1: UUUAUUCACAUUUUUGAAUUGA
chain 2: UUUAUUCACAUUUUUGAAUUGA
chain 3: GACCAGUGACAAUGACCGCUU
chain 4: GCGGUCAUUGUCACUGGUCUU
modifications: TfR aptamer attached via disulphide linker, further chemistry not given here
relative expression of CEBPA mRNA ([8]; 10 nM + L2K (active delivery), 72 hrs, vs untreated samples): within 1 standard deviation of untreated samples | CEBPA mRNA levels ([8]; 500 nM and 1000 nM, 72 hrs): lower | CEBPA mRNA levels ([8]; 1000 nM, vs control): within one standard deviation of the control
